Source: ChEMBL document CHEMBL1201862, “PubChem BioAssay data set” (2004)
“And” between values parts separate entries of the source, which are not always exact repeats. Equal values may be shown once.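 Growth conditions: 96-well plates. Treatment: test compound, 48 hours, 5 concentrations. Analysis: linear interpolation between bracketing concentrations; unreached endpoints set to highest concentration. GI50 = concentration required for 50% inhibition of growth.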 The source made the active and inactive calls. No stated cut-off is given here; in the data, active = GI50 up to about 1.1 µM and inactive = higher.

How the values were obtained:
Assay in all cases: DTP human tumour cell line panel, 48 h
[1] = system: PC-3
[2] = system: Malme-3M
[3] = system: LOX IMVI
[4] = system: HCT-116
[5] = system: MDA-MB-435
[6] = system: MOLT-4
[7] = system: OVCAR-5
[8] = system: SN12C
[9] = system: SW-620
[10] = system: MDA-N
[11] = system: MCF7
[12] = system: HT-29
[13] = system: A549
[14] = system: DU-145
[15] = system: T47D
[16] = system: NCI-H226
[17] = system: RXF 393
[18] = system: UO-31
[19] = system: UACC-62
[20] = system: SK-MEL-28
[21] = system: NCI/ADR-RES
[22] = system: UACC-257
[23] = system: CCRF-CEM
[24] = system: NCI-H460
[25] = system: EKVX
[26] = system: M14
[27] = system: HL-60
[28] = system: K562
[29] = system: ACHN
[30] = system: KM12
[31] = system: HCT-15
[32] = system: RPMI-8226
[33] = system: SF-539
[34] = system: HCC 2998
[35] = system: COLO 205
[36] = system: U-251
[37] = system: SK-MEL-5
[38] = system: NCI-H23
[39] = system: OVCAR-4
[40] = system: A498
[41] = system: MDA-MB-231
[42] = system: SK-MEL-2
[43] = system: NCI-H522
[44] = system: CAKI-1
[45] = system: SF-295
[46] = system: 786-0
[47] = system: HOP-62
[48] = system: SR
[49] = system: SK-OV-3
[50] = system: SNB-19
[51] = system: SF-268
[52] = system: OVCAR-3
[53] = system: IGROV-1
[54] = system: TK-10
[55] = system: SNB-75
[56] = system: Hs-578T
[57] = system: OVCAR-8
[58] = system: HOP-92

CC(=O)OCC1OC(n2c(-c3ccc(Cl)cc3)ccc(C#N)c2=S)C(OC(C)=O)C(OC(C)=O)C1OC(C)=O (stereo unspecified)
GI50 [1]: > 100 µM (inactive) and 55.5 µM (inactive) | GI50 [2]: > 61.1 µM (inactive) and 45 µM (inactive) | GI50 [3]: 54.1 µM (inactive) | GI50 [4]: 77.4 µM (inactive) and 61.2 µM (inactive) | GI50 [5]: 53.3 µM (inactive) | GI50 [6]: > 100 µM (inactive) and 51.3 µM (inactive) | GI50 [7]: > 100 µM (inactive) | GI50 [8]: > 100 µM (inactive) | GI50 [9]: > 100 µM (inactive) | GI50 [10]: > 100 µM (inactive) | GI50 [11]: > 100 µM (inactive) and 50.5 µM (inactive) | GI50 [12]: > 100 µM (inactive) | GI50 [13]: 83.9 µM (inactive) and 66.5 µM (inactive) | GI50 [14]: 74.8 µM (inactive) and > 77.1 µM (inactive) | GI50 [15]: 30.6 µM (inactive) and 48.9 µM (inactive) | GI50 [16]: 27 µM (inactive) and 45.9 µM (inactive) | GI50 [17]: 20 µM (inactive) and 13.3 µM (inactive) | GI50 [18]: 29.6 µM (inactive) and 33.6 µM (inactive) | GI50 [19]: 37.4 µM (inactive) and 31.6 µM (inactive) | GI50 [20]: > 100 µM (inactive) | GI50 [21]: 74 µM (inactive) | GI50 [22]: > 100 µM (inactive) and 73.6 µM (inactive) | GI50 [23]: > 100 µM (inactive) | GI50 [24]: > 60.4 µM (inactive) and 55.5 µM (inactive) | GI50 [25]: 17.6 µM (inactive) and 15.1 µM (inactive) | GI50 [26]: 76 µM (inactive) and > 84.7 µM (inactive) | GI50 [27]: > 100 µM (inactive) | GI50 [28]: > 100 µM (inactive) | GI50 [29]: 68.1 µM (inactive) and 58.5 µM (inactive) | GI50 [30]: > 100 µM (inactive) | GI50 [31]: > 100 µM | GI50 [32]: > 100 µM (inactive) and 56 µM (inactive) | GI50 [33]: 30.4 µM (inactive) and 39.1 µM (inactive) | GI50 [34]: > 100 µM (inactive)

COc1ccc2cc(C(=O)NCCCNC(=O)c3ccc4c(OC)c(OC)ccc4c3)ccc2c1OC
GI50 [1]: > 100 µM (inactive) | GI50 [35]: > 100 µM (inactive) | GI50 [3]: > 100 µM (inactive) | GI50 [4]: > 100 µM (inactive) | GI50 [36]: > 100 µM (inactive) | GI50 [5]: > 100 µM (inactive) | GI50 [6]: > 100 µM (inactive) | GI50 [7]: > 100 µM (inactive) | GI50 [8]: > 100 µM (inactive) | GI50 [9]: > 100 µM (inactive) | GI50 [10]: > 100 µM (inactive) | GI50 [37]: > 100 µM (inactive) | GI50 [11]: > 100 µM (inactive) | GI50 [12]: > 100 µM (inactive) | GI50 [38]: > 100 µM (inactive) | GI50 [13]: > 100 µM (inactive) | GI50 [39]: > 100 µM (inactive) | GI50 [14]: > 100 µM (inactive) | GI50 [40]: > 100 µM (inactive) | GI50 [15]: > 100 µM (inactive) | GI50 [41]: > 100 µM (inactive) | GI50 [17]: > 100 µM (inactive) | GI50 [18]: > 100 µM (inactive) | GI50 [19]: > 100 µM (inactive) | GI50 [20]: > 100 µM (inactive) | GI50 [21]: > 100 µM (inactive) | GI50 [22]: > 100 µM (inactive) | GI50 [23]: > 100 µM (inactive) | GI50 [42]: > 100 µM (inactive) | GI50 [24]: > 100 µM (inactive) | GI50 [25]: > 100 µM (inactive) | GI50 [43]: > 100 µM (inactive) | GI50 [28]: > 100 µM (inactive) | GI50 [44]: > 100 µM (inactive) | GI50 [45]: > 100 µM (inactive) | GI50 [46]: > 100 µM (inactive) | GI50 [29]: > 100 µM (inactive) | GI50 [30]: > 100 µM (inactive) | GI50 [31]: > 100 µM | GI50 [47]: > 100 µM (inactive) | GI50 [48]: > 100 µM (inactive) | GI50 [32]: > 100 µM (inactive) | GI50 [49]: > 100 µM (inactive) | GI50 [50]: > 100 µM (inactive) | GI50 [51]: > 100 µM (inactive) | GI50 [52]: > 100 µM (inactive) | GI50 [34]: > 100 µM (inactive)

O=C1/C(=C/c2ccco2)NC(=S)N1CN1CCCCC1
GI50 [1]: > 100 µM (inactive) | GI50 [53]: 81.3 µM (inactive) | GI50 [35]: 51.4 µM (inactive) | GI50 [54]: > 100 µM (inactive) | GI50 [2]: 85.5 µM (inactive) | GI50 [55]: 58.5 µM (inactive) | GI50 [3]: 33.7 µM (inactive) | GI50 [4]: 57.4 µM (inactive) | GI50 [36]: > 100 µM (inactive) | GI50 [5]: > 100 µM (inactive) | GI50 [6]: > 100 µM (inactive) | GI50 [7]: > 100 µM (inactive) | GI50 [8]: > 100 µM (inactive) | GI50 [9]: 38.5 µM (inactive) | GI50 [10]: > 100 µM (inactive) | GI50 [37]: 57.8 µM (inactive) | GI50 [11]: 36.3 µM (inactive) | GI50 [12]: 25.8 µM (inactive) | GI50 [38]: > 100 µM (inactive) | GI50 [13]: > 100 µM (inactive) | GI50 [39]: 13.3 µM (inactive) | GI50 [14]: > 100 µM (inactive) | GI50 [40]: > 100 µM (inactive) | GI50 [16]: 54.1 µM (inactive) | GI50 [41]: > 100 µM (inactive) | GI50 [18]: 26.9 µM (inactive) | GI50 [19]: 57.9 µM (inactive) | GI50 [20]: > 100 µM (inactive) | GI50 [21]: 10.5 µM (inactive) | GI50 [56]: 83.6 µM (inactive) | GI50 [57]: 43.7 µM (inactive) | GI50 [23]: 21.8 µM (inactive) | GI50 [42]: > 100 µM (inactive) | GI50 [58]: > 100 µM (inactive) | GI50 [25]: 98.4 µM (inactive) | GI50 [26]: 99.3 µM (inactive) | GI50 [43]: > 100 µM (inactive) | GI50 [28]: 60.1 µM (inactive) | GI50 [45]: > 100 µM (inactive) | GI50 [46]: 70.1 µM (inactive) | GI50 [29]: 34 µM (inactive) | GI50 [30]: > 100 µM (inactive) | GI50 [31]: 28.6 µM | GI50 [47]: > 100 µM (inactive) | GI50 [48]: 34.5 µM (inactive) | GI50 [32]: 28.8 µM (inactive) | GI50 [49]: > 100 µM (inactive) | GI50 [50]: 22.6 µM (inactive) | GI50 [51]: 68.4 µM (inactive) | GI50 [52]: > 100 µM (inactive)
